The values below come from US20050175597A1 (priority 2002, published 2005).

Where only a bound is given, the exact number is not on record here.

For data set [1], the system named is Lactobacillus plantarum. Also on record: species or system mice. The following applies: mouse, in vivo.
Data set [2] relates to Lactobacillus casei shirota. In words: Lactobacillus casei shirota viable plate counts after SGF treatment with or without colostrum. The conditions noted are these: L. casei shirota, no colostrum.
The subject of data set [3] is Lactobacillus plantarum.

On to `O=C([O-])O.[Na+]` [sodium bicarbonate, Sodium bicarbonate], for which, in the data set with Lactobacillus plantarum [1], the “survival of Lactobacillus plantarum (large intestine, FIG. 7)” value is reported as “increased” and the “survival of Lactobacillus plantarum at higher concentrations of protectant” value is recorded as “increased survival”. On to “Lactobacillus casei shirota [Lactobacillus + H2O]”, for which the “reduction in Lactobacillus viability” value in data set [2] is recorded as ≥ 10,000 fold. Consider “Lactobacillus plantarum [Lactobacillus + H2O]”, for which the “reduction in Lactobacillus viability” value with Lactobacillus plantarum [3] was found to be 1000 fold.
